{
  "source": "patent US20100004248A1",
  "about": "“Use of a Nitric Oxide Synthase Modulator for the Treatment of Cardiac Indications” (priority 2005, published 2010)",
  "key": {"[1]": {"test_system": "C57/BL6 WT mice subjected to TAC pressure overload", "experiment": "Transthoracic echocardiography in conscious TAC mice", "assay_type": "in vivo, mouse", "conditions": "WT mice, TAC 3 weeks, oral co-treatment 1 mg/g food; mean ± sem", "description": "(§1) Male NOS3 null mice (NOS3^−/−) and C57/BL6 WT controls (8-11 weeks, Jackson Labs, Bar Harbor, Me., USA) were used. Pressure overload was produced by transverse aorta constriction (TAC). Briefly, The aortic arch was isolated by entering the extrapleural space between the second and third rib, and afterwards the transverse aorta was isolated between the right and left carotid arteries. A 7-0 prolene suture ligature was tied around the transverse aorta against a 27-gauge needle to produce a 65-70% constriction after the removal of the needle. After closing the chest, animals were extubated, and a subcutaneous injection of morphine sulphate 0.2 mg, was administered before they returned to their cages. Animal's ventilatory and circulatory status was checked every 30 minutes during the first 2 hours. Sham-operated mice underwent the same operation except for aortic constriction. […] Animals were randomized to receive placebo or BH4 (120 mg/kg/d) for the next 5 weeks. At the end of the study, i.e. at 9 weeks, animal were sacrificed to receive tissue or underwent in vivo PV-loop analysis. […] Control mice were subject to sham operations, and animals were studied 3-9 weeks following surgery. An additional group of wild-type animals were subjected to TAC for 3 weeks while co-treated with oral tetrahydrobiopterin (BH4) (Sigma-Aldrich) (1 mg/g food) mixed in their rodent chow, providing 5 mg/day based on 4-6 g daily diet^8.\n(§2) Two different BH4 treatment protocols are used. For experiments related to FIGS. 1-7, where prevention of cardiac indications is described BH4 is provided orally as a treatment starting 2 days after TAC surgery (once mice are again eating oral diet). For those figures related to treatment of established cardiac indications, FIGS. 8-23, BH4 is provided orally but this is delayed for 4 weeks to establish substantial cardiac hypertrophy, remodeling, and NOS-uncoupling. Then the treatment is provided for the remaining 5 week period.\nFor folate studies, C57/BL6 WT were treated with folate (10 mg/kg/day) or with placebo for a 9 week period during which time the hearts were exposed to TAC.\nIn vivo cardiac morphology was assessed by transthoracic echocardiography (Acuson Sequoia C256, 13 MHz transducer, Siemens) in conscious mice. M-mode left ventricular (LV) end-systolic and end-diastolic dimensions were averaged from 3-5 beats. Left ventricular ejection fraction (LVEF) and percent fractional shortening (% FS) were calculated as: LVEF=[(LVEDD)^3-(LVESD)^3]/(LVEDD)^3×100; % FS=(LVEDD−LVESD)/LVEDD×100. Wall thickness of lateral freewall and intraventricular septum were averaged. Studies and analysis were performed blinded to heart condition."}, "[2]": {"test_system": "C57/BL6 WT mice subjected to TAC pressure overload", "experiment": "Body weight and heart weight in mice subjected to transverse aortic constriction (TAC)", "assay_type": "in vivo, mouse", "conditions": "TAC 3 weeks, oral co-treatment 1 mg/g food, mean ± sem", "description": "as §1, with “An additional group of wild-type animals were subjected to TAC for 3 weeks while co-treated with oral tetrahydrobiopterin (BH4) (Sigma-Aldrich) (1 mg/g food) mixed in their rodent chow, providing 5 mg/day based on 4-6 g daily diet^8.” left out"}, "[3]": {"test_system": "C57/BL6 WT mice subjected to TAC pressure overload", "experiment": "In vivo hemodynamics, PV loop analysis, in TAC mice", "parameters": "species or system mouse", "conditions": "TAC 3 weeks, oral co-treatment 1 mg/g food, mean ± sem", "description": "as §1, §2\nIn vivo left ventricular (LV) function was assessed by pressure-volume catheter^12,13. Mice were anesthetized with 1-2% isoflurane, urethane ([…], i.p.), etomidate (5-10 mg/kg, i.p.), and morphine (1-2 mg/kg, i.p.), underwent tracheostomy, and were ventilated with 6-7 μL/g tidal volume and 130 breaths/min. Volume expansion (12.5% human albumin, 50-100 μL over 5 min) was provided through a 30 G cannula via the right external jugular vein. The left ventricular apex was exposed through an incision between the 7-8th rib, and a catheter, specifically a 1.4 Fr PV catheter (SPR 839, Millar Instruments, Inc.), was advanced through the apex to lie along the longitudinal axis. Absolute volume was calibrated, and pressure-volume data was measured at steady state and during transient reduction of venous return as reported^13"}, "[4]": {"target": "T1, NOS (Mus musculus, UniProt P70313)", "T1 construct": "from tissue; host or cells: mouse left ventricular tissue homogenate", "T1 sequence (P70313 2-1202)": "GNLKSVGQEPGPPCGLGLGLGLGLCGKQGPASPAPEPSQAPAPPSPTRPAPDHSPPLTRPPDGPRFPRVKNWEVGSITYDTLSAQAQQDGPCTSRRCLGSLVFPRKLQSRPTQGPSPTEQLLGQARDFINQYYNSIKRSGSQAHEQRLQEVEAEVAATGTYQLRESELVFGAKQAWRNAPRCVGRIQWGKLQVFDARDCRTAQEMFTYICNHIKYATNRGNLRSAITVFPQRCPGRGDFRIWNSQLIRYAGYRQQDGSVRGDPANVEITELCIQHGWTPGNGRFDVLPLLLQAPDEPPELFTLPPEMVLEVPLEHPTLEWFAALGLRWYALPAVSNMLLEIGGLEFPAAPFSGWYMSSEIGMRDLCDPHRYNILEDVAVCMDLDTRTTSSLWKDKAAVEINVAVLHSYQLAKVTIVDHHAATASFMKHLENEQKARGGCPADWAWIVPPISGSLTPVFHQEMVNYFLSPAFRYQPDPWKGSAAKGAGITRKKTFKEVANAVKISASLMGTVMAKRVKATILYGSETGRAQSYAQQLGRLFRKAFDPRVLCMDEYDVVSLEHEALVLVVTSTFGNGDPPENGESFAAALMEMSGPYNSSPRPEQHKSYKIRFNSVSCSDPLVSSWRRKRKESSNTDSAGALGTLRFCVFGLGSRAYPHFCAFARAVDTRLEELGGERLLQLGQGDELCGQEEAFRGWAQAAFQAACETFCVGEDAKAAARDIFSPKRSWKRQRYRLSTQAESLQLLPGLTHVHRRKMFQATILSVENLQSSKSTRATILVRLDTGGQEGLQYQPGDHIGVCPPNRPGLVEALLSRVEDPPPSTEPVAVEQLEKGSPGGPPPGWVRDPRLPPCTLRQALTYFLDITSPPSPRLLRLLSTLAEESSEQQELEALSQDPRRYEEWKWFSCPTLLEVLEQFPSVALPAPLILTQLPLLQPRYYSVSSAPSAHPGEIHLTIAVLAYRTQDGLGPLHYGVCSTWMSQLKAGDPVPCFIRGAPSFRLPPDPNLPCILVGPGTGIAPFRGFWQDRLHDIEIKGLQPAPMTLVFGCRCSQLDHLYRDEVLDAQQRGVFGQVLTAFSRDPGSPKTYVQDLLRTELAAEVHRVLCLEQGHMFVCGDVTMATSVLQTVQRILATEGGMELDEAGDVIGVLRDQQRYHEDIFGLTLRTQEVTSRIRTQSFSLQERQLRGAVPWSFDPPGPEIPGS", "experiment": "Luminol chemiluminescence of heart tissue extracts with or without co-incubation with L-NAME (NOS-derived O2−)", "assay_type": "biochemical", "conditions": "1 mM co-incubation", "description": "Given the decline in NO-synthetic activity, it was next tested whether NOS-derived O2^− increased with TAC. Tissue extracts were subjected to luminol chemiluminescence assay with or without co-incubation with the NOS inhibitor L-NAME (1 mM). The relative contribution of NOS was minimal under basal conditions, but rose markedly (˜50%) after 3- and 9-weeks TAC (FIG. 6D). Control data in NOS3^−/− hearts confirmed this to be from NOS3 and not the other NOS isoforms.\nReactive oxygen species generation was examined by several independent methods. Superoxide production in left ventricular tissue homogenates was determined by luminol-enhanced chemiluminescence (EMD Biosciences). Flash frozen myocardium was homogenized in iced PBS buffer, centrifuged, and the precipitate re-suspended in assay buffer to a final concentration of 100 μM luminol following manufacturer's instructions. Phorbol-12-myristate-13-acetate or other oxidase stimulators were not used in the assay. Data were normalized by sample weight. […] Nitrotyrosine was also quantitatively assessed by ELISA assay (Oxis International)."}, "[5]": {"test_system": "Adult myocytes isolated from wild-type C57/B16 mouse hearts", "experiment": "Sarcomere shortening of isolated adult myocytes exposed to isoproterenol", "assay_type": "cell-based"}, "[6]": {"test_system": "intact heart, beta-adrenergic stimulation by ISO", "experiment": "Contractility response of intact heart to isoproterenol (ISO)", "assay_type": "in vivo, mouse", "description": "Regulation of acute beta-adrenergic stress by PDE5a inhibition (resulting in a rise in cGMP and activation of protein kinase G) requires the activity of nitric oxide synthase (NOS). […] This can be offset by chronic distal activation of the NO target protein soluble guanylate cyclase 9sGC). At the left are bars depicting the contractility response of an intact heart to ISO before and after co-administration of SIL. The ISO response is normally blunted by nearly 80%. The middle bars show data from mice with NOS inhibited by L-NAME (1 mg/L in drinking water). […] However, if one continues to treat hearts with the soluble guanylate cyclase activator (BAY 41-8543) for a week-all the while continuing NOS inhibition with L-NAME, the ability of SIL to suppress adrenergic stimulation is restored."}, "[7]": {"test_system": "Protein kinase G", "experiment": "Protein kinase G activity in 9-week TAC hearts", "assay_type": "in vivo, mouse", "conditions": "treatment during weeks 5-9", "description": "Protein kinase G activity increased nominally over time in 9-week TAC hearts, although this falls just short of statistical significance. […] Rather, the prior data supports an effect on reducing oxidant stress and re-coupling nitric oxide synthase."}},
  "data": [
    {"smiles": "C[C@H](O)[C@H](O)[C@H]1CNc2nc(N)[nH]c(=O)c2N1", "note": "[BH4, (6R)-5,6,7,8-tetrahydrobiopterin]", "values": [
      {"measurement": "Fractional Shortening", "setting": "[1]", "value": "61.7 ± 1.7", "unit": "%"},
      {"measurement": "LV diameter Diastole", "setting": "[1]", "value": "2.87 ± 0.06", "unit": "mm"},
      {"measurement": "LV diameter Systole", "setting": "[1]", "value": "1.12 ± 0.06", "unit": "mm"},
      {"measurement": "Wall thickness", "setting": "[1]", "value": "1.09 ± 0.03", "unit": "mm"},
      {"measurement": "Heart Weight (HW)", "setting": "[2]", "value": "170.3 ± 3.9", "unit": "mg"},
      {"measurement": "Arterial Elastance", "setting": "[3]", "value": "10.6 ± 0.7", "unit": "mmHg/μL"},
      {"measurement": "Ejection Fraction", "setting": "[3]", "value": "78.4 ± 5.8", "unit": "%"},
      {"measurement": "End-diastolic Volume", "setting": "[3]", "value": "20.5 ± 1.9", "unit": "µL"},
      {"measurement": "End-systolic Elastance", "setting": "[3]", "value": "115.1 ± 9.6", "unit": "mmHg/μL · g"},
      {"measurement": "End-systolic Volume", "setting": "[3]", "value": "4.8 ± 1.7", "unit": "µL"},
      {"measurement": "Heart RateR", "setting": "[3]", "value": "603.3 ± 22.9", "unit": "min⁻¹"},
      {"measurement": "LV Systolic Pressure", "setting": "[3]", "value": "193.0 ± 1.7", "unit": "mmHg"},
      {"measurement": "Peak Power Index", "setting": "[3]", "value": "75.5 ± 10.5", "unit": "mmHg/s"},
      {"measurement": "Tau", "setting": "[3]", "value": "3.5 ± 0.2", "unit": "ms"},
      {"measurement": "dPdtmn", "setting": "[3]", "value": "−15743 ± 1325", "unit": "mmHg/s"},
      {"measurement": "dPdtmx", "setting": "[3]", "value": "17003 ± 1125", "unit": "mmHg/s"}
    ]},
    {"smiles": "COC(=O)[C@@H](N)CCCNC(=N)N[N+](=O)[O-]", "note": "[L-NAME]", "values": [
      {"measurement": "inhibition of luminol chemiluminescence", "setting": "[4]; 3 weeks and 9 weeks WT-TAC heart lysates", "value": "~50", "unit": "%"},
      {"measurement": "inhibition of luminol chemiluminescence", "setting": "[4]; baseline (sham) heart lysates", "value": "< 15", "unit": "%"}
    ]},
    {"smiles": "CCCc1nn(C)c2c(=O)[nH]c(-c3cc(S(=O)(=O)N4CCN(C)CC4)ccc3OCC)nc12", "note": "[Sildenafil, sildenafil]", "values": [
      {"measurement": "ability to blunt the isoproterenol response", "setting": "[5]; myocytes from hypertrophied and dilated hearts (3-4 weeks TAC), p=0.04", "value": "markedly diminished"},
      {"measurement": "blunting of isoproterenol-increased sarcomere shortening", "setting": "[5]; wild-type myocytes, isoproterenol 10 micromolar, sildenafil 0.1", "value": "~25", "unit": "%"},
      {"measurement": "blunting of ISO contractility response", "setting": "[6]; intact heart, co-administration of SIL", "value": "~80", "unit": "%"},
      {"measurement": "inhibition of ISO response with NOS inhibited", "setting": "[6]; mice given L-NAME 1 mg/L in drinking water for 1 week", "value": "no longer inhibited"},
      {"measurement": "PKG activity", "setting": "[7]", "value": "significantly increased"}
    ]}
  ]
}
